Reference: ChEMBL document CHEMBL1201862, “PubChem BioAssay data set” (2004)
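Five compound concentrations were applied to cells in 96-well plates for 48 hours; endpoints were derived by simple linear interpolation of the resulting dose-response curve. GI50 is the concentration that inhibits growth by half.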 Activity calls are given as the source filed them. Rule as the data show it: active = GI50 up to about 1.1 µM and inactive = higher.

Assays:
Assay in all cases: NCI-60 cell line screen, 48 h
A549 = tested on: A549
HCT-15 = tested on: HCT-15
HL-60 = tested on: HL-60
HOP-62 = tested on: HOP-62
Hs-578T = tested on: Hs-578T
IGROV-1 = tested on: IGROV-1
M14 = tested on: M14
MCF7 = tested on: MCF7
MOLT-4 = tested on: MOLT-4
NCI-H226 = tested on: NCI-H226
OVCAR-3 = tested on: OVCAR-3
OVCAR-4 = tested on: OVCAR-4
SK-MEL-2 = tested on: SK-MEL-2
SK-MEL-5 = tested on: SK-MEL-5
SK-OV-3 = tested on: SK-OV-3
SN12C = tested on: SN12C
SNB-19 = tested on: SNB-19
SNB-75 = tested on: SNB-75
SW-620 = tested on: SW-620
UACC-62 = tested on: UACC-62

| SMILES | GI50 (A549) | GI50 (HCT-15) [µM] | GI50 (HL-60) | GI50 (HOP-62) | GI50 (Hs-578T) | GI50 (IGROV-1) | GI50 (M14) | GI50 (MCF7) | GI50 (MOLT-4) | GI50 (NCI-H226) | GI50 (OVCAR-3) | GI50 (OVCAR-4) | GI50 (SK-MEL-2) | GI50 (SK-MEL-5) | GI50 (SK-OV-3) | GI50 (SN12C) | GI50 (SNB-19) | GI50 (SNB-75) | GI50 (SW-620) | GI50 (UACC-62) |
| --- | --- | --- | --- | --- | --- | --- | --- | --- | --- | --- | --- | --- | --- | --- | --- | --- | --- | --- | --- | --- |
| CC(C)(C)c1cc(C(=O)/C=C/c2c(Cl)cccc2Cl)cc(C(C)(C)C)c1O | 18.8 µM (inactive) | 12.4 | 3.7 µM (inactive) | 20 µM (inactive) | 25.2 µM (inactive) | 23.4 µM (inactive) | 20.3 µM (inactive) | 8.34 µM (inactive) | 6.85 µM (inactive) | 17.8 µM (inactive) | 3.79 µM (inactive) | 28.7 µM (inactive) | 11.9 µM (inactive) | 11.4 µM (inactive) | 53.5 µM (inactive) | 21 µM (inactive) | 11.9 µM (inactive) | 4.93 µM (inactive) | 13.3 µM (inactive) | 12.8 µM (inactive) |
| NC(=O)c1nc[nH]c1/N=N/SCC(N)C(=O)O (stereo not given) | > 100 µM (inactive) | 43.2 | 1.26 µM (inactive) | 28.7 µM (inactive) | > 56.9 µM (inactive) | 12.8 µM (inactive) | 2.81 µM (inactive) | 97.7 µM (inactive) | 0.962 µM (active) | > 44.8 µM (inactive) | 19.1 µM (inactive) | 11.3 µM (inactive) | 3.33 µM (inactive) | 57 µM (inactive) | 2.88 µM (inactive) | 6.73 µM (inactive) | > 100 µM (inactive) | 24.3 µM (inactive) | 16.4 µM (inactive) | 6.31 µM (inactive) |
| C[C@H](CCc1nc(C#N)c(N)o1)[C@H]1CC[C@H]2[C@@H]3CCC4C[C@@H](O)CC[C@]4(C)[C@H]3C[C@@H](O)[C@]12C (stereo not given in full) | 5.89 µM (inactive) | 14.7 | 0.475 µM (active) | 18.9 µM (inactive) | 8.55 µM (inactive) | 6.24 µM (inactive) | 15.4 µM (inactive) | 14.6 µM (inactive) | 4.02 µM (inactive) | 8.38 µM (inactive) | 11.9 µM (inactive) | 1.03 µM (active) | 16.3 µM (inactive) | 12.6 µM (inactive) | 14.3 µM (inactive) | 10.7 µM (inactive) | 16.4 µM (inactive) | 10.3 µM (inactive) | 12.6 µM (inactive) | 12.1 µM (inactive) |
| CCOP(=O)(O)C(Nc1ccc(/N=N/c2ccccc2)cc1)c1ccc(C(Nc2ccc(/N=N/c3ccccc3)cc2)P(=O)(O)OCC)cc1 (stereo not given) | 29.7 µM (inactive) | 19.7 | 17.1 µM (inactive) | 18.5 µM (inactive) | 18.6 µM (inactive) | 19.7 µM (inactive) | 15.7 µM (inactive) | 48.3 µM (inactive) | 20.3 µM (inactive) | 40.3 µM (inactive) | 75.7 µM (inactive) | 42.8 µM (inactive) | 18.2 µM (inactive) | 16.6 µM (inactive) | 18.7 µM (inactive) | 19.2 µM (inactive) | 21.5 µM (inactive) | 14.7 µM (inactive) | 16.7 µM (inactive) | 19.2 µM (inactive) |
| CC(=O)Oc1cccc2c1C(=O)c1c(OC(C)=O)cc(C)cc1C2=O | 47.5 µM (inactive) | 40.6 | 23.6 µM (inactive) | 32.4 µM (inactive) | 46.6 µM (inactive) | 25.7 µM (inactive) | 81.7 µM (inactive) | 46 µM (inactive) | 26.6 µM (inactive) | > 100 µM (inactive) | 16.4 µM (inactive) | 27.7 µM (inactive) | 29 µM (inactive) | 29 µM (inactive) | 34 µM (inactive) | 51.2 µM (inactive) | 30.3 µM (inactive) | 36 µM (inactive) | 37 µM (inactive) | 32.7 µM (inactive) |
